# Experimental data reported in the supplement of paper PMC10307832.
# Legend:
# Test in all cases: relative viability (nuclei count vs DMSO), 5 days (fraction); higher = more cells survive
# 201T = test system: 201T
# Outline: (§1)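 For relative viability, nuclei counts in treated wells were divided by those in vehicle wells. Lung cancer cell lines had been pin-tool dosed in 1536-well plates the day after seeding and cultured for 5 days, then fixed and stained in one step (final 0.05% Triton X-100, 1% formaldehyde, 1 ug/ml Hoechst) and imaged at 4×. Doses were one drug alone or a fixed anchor-drug dose plus five library-drug doses (not always all listed) in √10 steps, and values are duplicate-plate medians.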
# PC-3 [JPC-3] = test system: PC-3 [JPC-3]
# Outline: as §1
# NCI-H661 = test system: NCI-H661
# Outline: as §1
# LCLC-97TM1 = test system: LCLC-97TM1
# Outline: as §1
# H3255 = test system: H3255
# Outline: as §1
# ABC-1 = test system: ABC-1
# Outline: as §1
# A-427 = test system: A-427
# Outline: as §1
# LC-2-ad = test system: LC-2-ad
# Outline: as §1
# NCI-H1915 = test system: NCI-H1915
# Outline: as §1
# NCI-H441 = test system: NCI-H441
# Outline: as §1
# BEN = test system: BEN
# Outline: as §1
# NCI-H596 = test system: NCI-H596
# Outline: as §1
# NCI-H727 = test system: NCI-H727
# Outline: as §1
# NCI-H1944 = test system: NCI-H1944
# Outline: as §1
# NCI-H1650 = test system: NCI-H1650
# Outline: as §1
# NCI-H520 = test system: NCI-H520
# Outline: as §1
# NCI-H2087 = test system: NCI-H2087
# Outline: as §1
# NCI-H650 = test system: NCI-H650
# Outline: as §1
# NCI-H460 = test system: NCI-H460
# Outline: as §1
# NCI-H2023 = test system: NCI-H2023
# Outline: as §1
# NCI-H1651 = test system: NCI-H1651
# Outline: as §1
structure (smiles),measurement,setting,value
O=c1cc(-c2cccc3c2Sc2ccccc2S3)oc(N2CCOCC2)c1 + Nc1ncn([C@H]2C[C@H](O)[C@@H](CO)O2)c(=O)n1 [Decitabine] (partner 2 µM),relative viability,201T; first compound 0.08 µM,0.855
same,relative viability,201T; first compound 0.253 µM,0.882
same,relative viability,201T; first compound 0.8 µM,0.893
same,relative viability,201T; first compound 2.53 µM,0.816
same,relative viability,201T; first compound 8 µM,0.744
same,relative viability,PC-3 [JPC-3]; first compound 0.08 µM,0.733
same,relative viability,PC-3 [JPC-3]; first compound 0.253 µM,0.791
same,relative viability,PC-3 [JPC-3]; first compound 0.8 µM,0.838
same,relative viability,PC-3 [JPC-3]; first compound 2.53 µM,0.79
same,relative viability,PC-3 [JPC-3]; first compound 8 µM,0.884
same,relative viability,NCI-H661; first compound 0.08 µM,0.536
same,relative viability,NCI-H661; first compound 0.253 µM,0.572
same,relative viability,NCI-H661; first compound 0.8 µM,0.518
same,relative viability,NCI-H661; first compound 2.53 µM,0.551
same,relative viability,NCI-H661; first compound 8 µM,0.558
same,relative viability,LCLC-97TM1; first compound 0.08 µM,0.195
same,relative viability,LCLC-97TM1; first compound 0.253 µM,0.217
same,relative viability,LCLC-97TM1; first compound 0.8 µM,0.256
same,relative viability,LCLC-97TM1; first compound 2.53 µM,0.186
same,relative viability,LCLC-97TM1; first compound 8 µM,0.242
same,relative viability,H3255; first compound 0.08 µM,0.653
same,relative viability,H3255; first compound 0.253 µM,0.68
same,relative viability,H3255; first compound 0.8 µM,0.631
same,relative viability,H3255; first compound 2.53 µM,0.558
same,relative viability,H3255; first compound 8 µM,0.689
same,relative viability,ABC-1; first compound 0.08 µM,0.993
same,relative viability,ABC-1; first compound 0.253 µM,1.16
same,relative viability,ABC-1; first compound 0.8 µM,1.33
same,relative viability,ABC-1; first compound 2.53 µM,1.17
same,relative viability,ABC-1; first compound 8 µM,1.19
same,relative viability,A-427; first compound 0.08 µM,0.448
same,relative viability,A-427; first compound 0.253 µM,0.6
same,relative viability,A-427; first compound 0.8 µM,0.547
same,relative viability,A-427; first compound 2.53 µM,0.573
same,relative viability,A-427; first compound 8 µM,0.548
same,relative viability,LC-2-ad; first compound 0.08 µM,0.786
same,relative viability,LC-2-ad; first compound 0.253 µM,0.928
same,relative viability,LC-2-ad; first compound 0.8 µM,0.905
same,relative viability,LC-2-ad; first compound 2.53 µM,0.761
same,relative viability,LC-2-ad; first compound 8 µM,0.793
same,relative viability,NCI-H1915; first compound 0.08 µM,0.259
same,relative viability,NCI-H1915; first compound 0.253 µM,0.277
same,relative viability,NCI-H1915; first compound 0.8 µM,0.271
same,relative viability,NCI-H1915; first compound 2.53 µM,0.259
same,relative viability,NCI-H1915; first compound 8 µM,0.289
same,relative viability,NCI-H441; first compound 0.08 µM,0.221
same,relative viability,NCI-H441; first compound 0.253 µM,0.232
same,relative viability,NCI-H441; first compound 0.8 µM,0.223
same,relative viability,NCI-H441; first compound 2.53 µM,0.257
same,relative viability,NCI-H441; first compound 8 µM,0.265
same,relative viability,BEN; first compound 0.08 µM,0.649
same,relative viability,BEN; first compound 0.253 µM,0.699
same,relative viability,BEN; first compound 0.8 µM,0.69
same,relative viability,BEN; first compound 2.53 µM,0.586
same,relative viability,BEN; first compound 8 µM,0.943
same,relative viability,NCI-H596; first compound 0.08 µM,0.833
same,relative viability,NCI-H596; first compound 0.253 µM,0.951
same,relative viability,NCI-H596; first compound 0.8 µM,0.989
same,relative viability,NCI-H596; first compound 2.53 µM,0.997
same,relative viability,NCI-H596; first compound 8 µM,0.996
same,relative viability,NCI-H727; first compound 0.08 µM,0.704
same,relative viability,NCI-H727; first compound 0.253 µM,1.05
same,relative viability,NCI-H727; first compound 2.53 µM,0.773
same,relative viability,NCI-H727; first compound 8 µM,0.895
same,relative viability,NCI-H1944; first compound 0.08 µM,0.406
same,relative viability,NCI-H1944; first compound 0.253 µM,0.448
same,relative viability,NCI-H1944; first compound 0.8 µM,0.457
same,relative viability,NCI-H1944; first compound 2.53 µM,0.432
same,relative viability,NCI-H1944; first compound 8 µM,0.468
same,relative viability,NCI-H1650; first compound 0.08 µM,0.415
same,relative viability,NCI-H1650; first compound 0.253 µM,0.511
same,relative viability,NCI-H1650; first compound 0.8 µM,0.416
same,relative viability,NCI-H1650; first compound 2.53 µM,0.365
same,relative viability,NCI-H1650; first compound 8 µM,0.374
same,relative viability,NCI-H520; first compound 0.08 µM,0.518
same,relative viability,NCI-H520; first compound 0.253 µM,0.623
same,relative viability,NCI-H520; first compound 0.8 µM,0.577
same,relative viability,NCI-H520; first compound 2.53 µM,0.499
same,relative viability,NCI-H520; first compound 8 µM,0.548
same,relative viability,NCI-H2087; first compound 0.08 µM,0.231
same,relative viability,NCI-H2087; first compound 0.253 µM,0.257
same,relative viability,NCI-H2087; first compound 0.8 µM,0.266
same,relative viability,NCI-H2087; first compound 2.53 µM,0.242
same,relative viability,NCI-H2087; first compound 8 µM,0.238
same,relative viability,NCI-H650; first compound 0.08 µM,0.317
same,relative viability,NCI-H650; first compound 0.253 µM,0.352
same,relative viability,NCI-H650; first compound 0.8 µM,0.513
same,relative viability,NCI-H650; first compound 2.53 µM,0.322
same,relative viability,NCI-H650; first compound 8 µM,0.29
same,relative viability,NCI-H460; first compound 0.08 µM,0.476
same,relative viability,NCI-H460; first compound 0.253 µM,0.659
same,relative viability,NCI-H460; first compound 0.8 µM,0.462
same,relative viability,NCI-H460; first compound 2.53 µM,0.468
same,relative viability,NCI-H460; first compound 8 µM,0.669
same,relative viability,NCI-H2023; first compound 0.08 µM,0.214
same,relative viability,NCI-H2023; first compound 0.253 µM,0.276
same,relative viability,NCI-H2023; first compound 0.8 µM,0.25
same,relative viability,NCI-H2023; first compound 2.53 µM,0.245
same,relative viability,NCI-H2023; first compound 8 µM,0.229
same,relative viability,NCI-H1651; first compound 0.08 µM,0.575
same,relative viability,NCI-H1651; first compound 0.253 µM,0.766
same,relative viability,NCI-H1651; first compound 0.8 µM,0.617
same,relative viability,NCI-H1651; first compound 2.53 µM,0.555
same,relative viability,NCI-H1651; first compound 8 µM,0.628
